Measured values: ChEMBL document CHEMBL1201862, “PubChem BioAssay data set” (2004)
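Briefly, cells in 96-well plates were exposed to five compound concentrations for 48 h, and endpoints were estimated by linear interpolation. At the GI50, growth is halved.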 Calls of active or inactive are those of the source. Rule as the data show it: active = GI50 up to about 1.1 µM and inactive = higher.

What was measured:
Assay in all cases: inhibition of tumour cell growth, NCI panel, 48 h
[1] = system: 786-0
[2] = system: HT-29
[3] = system: HOP-62
[4] = system: SN12C
[5] = system: K562
[6] = system: A498
[7] = system: UO-31
[8] = system: SK-MEL-5
[9] = system: HCT-15
[10] = system: MOLT-4
[11] = system: SK-OV-3
[12] = system: NCI-H460
[13] = system: NCI-H522
[14] = system: OVCAR-3
[15] = system: CAKI-1
[16] = system: MDA-N
[17] = system: MCF7
[18] = system: NCI/ADR-RES
[19] = system: T47D

| SMILES | GI50 [1] | GI50 [2] | GI50 [3] | GI50 [4] | GI50 [5] | GI50 [6] | GI50 [7] | GI50 [8] | GI50 [9] | GI50 [10] | GI50 [11] | GI50 [12] | GI50 [13] | GI50 [14] | GI50 [15] | GI50 [16] | GI50 [17] | GI50 [18] | GI50 [19] |
| --- | --- | --- | --- | --- | --- | --- | --- | --- | --- | --- | --- | --- | --- | --- | --- | --- | --- | --- | --- |
| CCOC(=O)C(=C=Cc1cccs1)C(=O)c1ccccc1 | 16 µM (inactive) | 19.4 µM (inactive) | 18.7 µM (inactive) | 15.8 µM (inactive) | 37.4 µM (inactive) | 19.9 µM (inactive) | 14.3 µM (inactive) | 3.38 µM (inactive) | 16.6 µM | 19.2 µM (inactive) | 20.3 µM (inactive) | 20.4 µM (inactive) | 15.1 µM (inactive) |  |  |  |  |  |  |
| COc1ccc(Nc2nc3c(N)cc(C(F)(F)F)cc3nc2-c2ccccc2)cc1 | 35.6 µM (inactive) |  | 83.2 µM (inactive) | > 100 µM (inactive) | > 100 µM (inactive) | > 100 µM (inactive) | > 100 µM (inactive) | 57.1 µM (inactive) | > 100 µM | > 100 µM (inactive) | 83 µM (inactive) | 60.4 µM (inactive) | 44.3 µM (inactive) | 33.6 µM (inactive) | > 100 µM (inactive) |  |  |  |  |
| N#Cc1nc(-c2ccccc2O)oc1N | 70.1 µM (inactive) | > 100 µM (inactive) | > 100 µM (inactive) | 81.1 µM (inactive) | 29.9 µM (inactive) | 80.9 µM (inactive) |  | 61.4 µM (inactive) | 43.5 µM | 60.4 µM (inactive) | > 100 µM (inactive) |  |  |  | 36.9 µM (inactive) | > 100 µM (inactive) | 37.1 µM (inactive) |  |  |
| COC(=O)/C(C#N)=C1\CCC(C(=O)OC)N1C (stereo not given) | > 100 µM (inactive) |  | > 100 µM (inactive) | > 100 µM (inactive) | > 100 µM (inactive) | > 100 µM (inactive) | > 100 µM (inactive) | > 100 µM (inactive) | > 100 µM | > 100 µM (inactive) | > 100 µM (inactive) | > 100 µM (inactive) | > 100 µM (inactive) | > 100 µM (inactive) | > 100 µM (inactive) |  |  |  |  |
| C=Cc1c(-c2ccccc2)cnc2[nH]c3ccccc3c12 | > 50 µM (inactive) | > 50 µM (inactive) | > 50 µM (inactive) | > 50 µM (inactive) | > 50 µM (inactive) | > 50 µM (inactive) | > 50 µM (inactive) | > 50 µM (inactive) | > 50 µM | > 50 µM (inactive) | > 50 µM (inactive) | > 50 µM (inactive) | > 50 µM (inactive) | > 50 µM (inactive) | > 50 µM (inactive) |  |  |  |  |
| Cc1cccc2c1CCC21OC(=O)c2c1ccc1ccccc21 (stereo not given) | 83.9 µM (inactive) | 35.3 µM (inactive) | 70.1 µM (inactive) | > 100 µM (inactive) | 21.7 µM (inactive) | 16.8 µM (inactive) | 47.4 µM (inactive) | 19.6 µM (inactive) | 35.6 µM | 24.3 µM (inactive) | 37.3 µM (inactive) | 42.2 µM (inactive) | > 100 µM (inactive) | 26 µM (inactive) | 34.5 µM (inactive) |  |  |  |  |
| CC(=O)Oc1ccccc1C(=O)C1c2cccc(O)c2C(=O)c2c(O)cccc21 | 1.67 µM (inactive) | 2.59 µM (inactive) | 1.44 µM (inactive) | 2.3 µM (inactive) | 0.366 µM (active) | 1.8 µM (inactive) | 0.741 µM (active) | 1.05 µM (active) | 1.08 µM | 1.46 µM (inactive) | 0.543 µM (active) | 0.433 µM (active) | 0.479 µM (active) | 0.593 µM (active) | 1.95 µM (inactive) |  |  |  |  |
| O=C1CSC(/C(=C/c2ccccc2)c2nc3ccccc3[nH]2)=N1 | 65.2 µM (inactive) | 73.6 µM (inactive) | 41.2 µM (inactive) | 75.3 µM (inactive) | > 100 µM (inactive) | > 100 µM (inactive) | > 100 µM (inactive) | 19.7 µM (inactive) | > 100 µM | > 100 µM (inactive) | 23.3 µM (inactive) | > 100 µM (inactive) | 41.9 µM (inactive) | > 10 µM (inactive) | > 100 µM (inactive) |  |  |  |  |
| CCCC(O)c1cn(-c2cccc(S(=O)(=O)O)c2)nn1 (stereo not given) | > 100 µM (inactive) | > 100 µM (inactive) | > 100 µM (inactive) | > 100 µM (inactive) | > 100 µM (inactive) | > 100 µM (inactive) | > 100 µM (inactive) | > 100 µM (inactive) | > 100 µM | > 100 µM (inactive) | > 100 µM (inactive) | > 100 µM (inactive) | > 100 µM (inactive) | > 100 µM (inactive) | > 100 µM (inactive) |  |  |  |  |
| CCc1cccc(CC)c1NC(=O)C1=C(C)NC(C)=C(C(=O)Nc2c(CC)cccc2CC)C1c1ccc2c(c1)OCO2 | 16.4 µM (inactive) | 15.9 µM (inactive) | 19.2 µM (inactive) | 15.3 µM (inactive) | 15.6 µM (inactive) | 21.7 µM (inactive) | 17.1 µM (inactive) | 18.1 µM (inactive) | 12.4 µM | 56.8 µM (inactive) | 25.8 µM (inactive) | 14 µM (inactive) | 13.8 µM (inactive) | 13.9 µM (inactive) | 20.1 µM (inactive) |  |  |  |  |
| [N-]=[N+]=NC(c1cn(C2CC(O)C(CO)O2)c(=O)[nH]c1=O)C(Br)Br (stereo not given) | > 100 µM (inactive) | > 100 µM (inactive) | > 100 µM (inactive) | > 100 µM (inactive) | > 100 µM (inactive) |  | > 100 µM (inactive) | > 100 µM (inactive) | > 100 µM | > 100 µM (inactive) | > 100 µM (inactive) | > 100 µM (inactive) | > 100 µM (inactive) | > 100 µM (inactive) | > 100 µM (inactive) |  |  |  |  |
| CC1(C)OC[C@@H]([C@H](C=O)OCc2ccccc2)O1 | > 100 µM (inactive) | > 100 µM (inactive) | > 100 µM (inactive) | > 100 µM (inactive) | > 100 µM (inactive) | > 100 µM (inactive) | > 100 µM (inactive) | > 100 µM (inactive) | > 100 µM | > 100 µM (inactive) | > 100 µM (inactive) |  |  | > 100 µM (inactive) |  | > 100 µM (inactive) | > 100 µM (inactive) | > 100 µM (inactive) |  |
| C/C(=N/Nc1ccc([N+](=O)[O-])cc1[N+](=O)[O-])C(CC(C(=O)Nc1ccccc1C)/C(C)=N\Nc1ccc([N+](=O)[O-])cc1[N+](=O)[O-])C(=O)Nc1ccccc1C (stereo not given) | 17.9 µM (inactive) | 14.8 µM (inactive) | 11.9 µM (inactive) | 6 µM (inactive) | > 100 µM (inactive) | 14.9 µM (inactive) | 11.5 µM (inactive) | 17.2 µM (inactive) | 32.9 µM |  | 30.1 µM (inactive) | 12.5 µM (inactive) | 0.424 µM (active) | 7.06 µM (inactive) | 14.2 µM (inactive) |  |  |  |  |
| N#CCC(=O)N1CCCCCCC1 | > 100 µM (inactive) | 29.6 µM (inactive) | > 100 µM (inactive) | > 100 µM (inactive) | > 100 µM (inactive) | > 100 µM (inactive) | > 100 µM (inactive) | > 100 µM (inactive) | 16.8 µM |  | > 100 µM (inactive) | 42.7 µM (inactive) |  |  | > 100 µM (inactive) |  |  |  |  |
| O=C(COC(=O)c1cccc2c(=O)c3ccccc3[nH]c12)Nc1ccc(Cl)cc1 | 23.1 µM (inactive) | 67.9 µM (inactive) | 22.1 µM (inactive) | > 100 µM (inactive) | > 100 µM (inactive) | 7.96 µM (inactive) | 9.64 µM (inactive) | 44.2 µM (inactive) |  | 26.3 µM (inactive) | 82.8 µM (inactive) | 63.4 µM (inactive) | 23.9 µM (inactive) | > 100 µM (inactive) | > 100 µM (inactive) |  |  |  |  |
| COc1cc2nn(-c3ccccc3)nc2c2nonc12 | 91.6 µM (inactive) | > 100 µM (inactive) | > 100 µM (inactive) | > 100 µM (inactive) | > 100 µM (inactive) | > 100 µM (inactive) | > 100 µM (inactive) | > 100 µM (inactive) | > 100 µM | > 100 µM (inactive) | > 100 µM (inactive) | > 100 µM (inactive) | > 100 µM (inactive) | > 100 µM (inactive) | > 100 µM (inactive) | > 100 µM (inactive) |  | > 100 µM (inactive) | > 100 µM (inactive) |
| CCN(CC)Cc1cc(Nc2c3ccccc3nc3c2[nH]c2ccccc23)ccc1O | 1.13 µM (inactive) | 0.52 µM (active) | 1.14 µM (inactive) | 1.67 µM (inactive) | 1.87 µM (inactive) | 1.61 µM (inactive) | 1.52 µM (inactive) | 1.89 µM (inactive) | 0.853 µM | 0.508 µM (active) | 2.11 µM (inactive) | 0.75 µM (active) | 1.13 µM (inactive) |  | 1.46 µM (inactive) |  |  |  |  |
| COC1(C)C(=O)N2C1N(C(=O)OC(C)(C)C)CC2(C)C (stereo not given) | > 100 µM (inactive) | > 100 µM (inactive) | > 100 µM (inactive) | > 100 µM (inactive) | > 100 µM (inactive) | > 100 µM (inactive) | > 100 µM (inactive) | > 100 µM (inactive) | 63.2 µM | > 100 µM (inactive) | > 100 µM (inactive) | 81.3 µM (inactive) | > 100 µM (inactive) | > 100 µM (inactive) | > 100 µM (inactive) |  |  |  |  |
| COC(=O)C1=C(O)C(O)=C(C(=O)OC)CC1 | > 100 µM (inactive) | > 100 µM (inactive) | > 100 µM (inactive) | > 100 µM (inactive) | > 100 µM (inactive) | > 100 µM (inactive) | > 100 µM (inactive) | > 100 µM (inactive) | > 100 µM | > 100 µM (inactive) | > 100 µM (inactive) | > 100 µM (inactive) | > 100 µM (inactive) | > 100 µM (inactive) | > 100 µM (inactive) |  |  |  |  |
